One block for each compound: values may come before it.
Key:
[1] = Cytotoxicity against human THP1-Dual KO-STING cells assessed as cell viability incubated for 24 hrs by CellTiter 96 aqueous one solution assay relative to control; assay type: toxicity, cell-based; design: concentration or dose not given beside the values; conditions: read-out: Activity
[2] = Cytotoxicity against wild type human THP1-Dual cells assessed as cell viability incubated for 24 hrs by CellTiter 96 aqueous one solution assay relative to control; assay type: toxicity, cell-based; design: concentration or dose not given beside the values; conditions: read-out: Activity
RAW264.7 = assay: Cytotoxicity against mouse RAW264.7 cells assessed as reduction in cell viability at 0 to 80 uM incubated for 24 hrs by CellTiter 96 aqueous one solution assay; assay type: toxicity, cell-based; conditions: raw264.7, 24 h, dose 0-80 µM
[3] = Metabolic stability at phase I in human liver microsomes assessed as remaining activity at 1 uM incubated for 30 mins in presence of NADPH by LC-MS/MS analysis; assay type: ADME, Microsome; conditions: read-out: Stability
Cytochrome P450 2D6 = Cytochrome P450 2D6 (Homo sapiens, UniProt P10635); assay: Inhibition of CYP2D6 in human liver microsomes using dextromethorphan as substrate preincubated for 5 min followed by substrate and NADPH addition and measured after 20 mins by LC-MS/MS analysis; assay type: ADME, Microsome
[4] = Oral bioavailability in ICR mouse at 20 mg/kg administered via oral gavage by LC-MS/MS analysis; assay type: ADME, organism-based; conditions: in vivo
Cytochrome P450 1A2 = molecular target: T1, Cytochrome P450 1A2 (Homo sapiens, UniProt P05177); assay: Inhibition of CYP1A2 in human liver microsomes using phenacetin as substrate preincubated for 5 min followed by substrate and NADPH addition and measured after 20 mins by LC-MS/MS analysis; assay type: ADME, Microsome
T1 sequence (P05177 whole entry): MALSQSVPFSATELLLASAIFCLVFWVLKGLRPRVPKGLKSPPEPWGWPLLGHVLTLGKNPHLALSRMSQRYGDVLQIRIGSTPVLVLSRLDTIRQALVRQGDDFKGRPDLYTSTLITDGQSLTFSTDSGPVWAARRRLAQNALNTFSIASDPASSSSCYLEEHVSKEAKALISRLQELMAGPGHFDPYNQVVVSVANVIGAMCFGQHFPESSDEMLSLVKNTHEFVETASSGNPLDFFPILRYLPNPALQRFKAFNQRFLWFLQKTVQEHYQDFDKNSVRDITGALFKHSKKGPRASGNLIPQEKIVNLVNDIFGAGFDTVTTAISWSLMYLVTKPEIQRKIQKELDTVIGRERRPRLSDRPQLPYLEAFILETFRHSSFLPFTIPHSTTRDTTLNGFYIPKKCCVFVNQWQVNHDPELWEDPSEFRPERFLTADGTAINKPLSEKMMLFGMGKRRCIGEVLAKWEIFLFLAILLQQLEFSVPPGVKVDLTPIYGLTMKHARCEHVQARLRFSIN

[5] = Half life in ICR mouse at 20 mg/kg, po administered via oral gavage by LC-MS/MS analysis; assay type: ADME, organism-based; conditions: in vivo
THP1-Dual = assay: Cytotoxicity against human THP1-Dual cells assessed as reduction in cell viability at 0 to 50 uM incubated for 24 hrs by CellTiter 96 aqueous one solution assay; assay type: toxicity, cell-based; conditions: dose 0-50 µM
[6] = molecular target: Voltage-gated inwardly rectifying potassium channel KCNH2 (Homo sapiens, UniProt Q12809); assay: Inhibition of hERG by non-electrophysiological analysis; assay type: toxicity
[7] = Toxicity in BALB/c mouse implanted with mouse 4T1 cells assessed as body weight loss at 16 mg/kg, po administrated every other day for 6 times and measured after 12 days; assay type: organism-based; conditions: in vivo, 288 h, time 12 day
Cytochrome P450 3A4 = Cytochrome P450 3A4 (Homo sapiens, UniProt P08684); assay: Inhibition of CYP3A4 in human liver microsomes using […] as substrate preincubated for 5 min followed by substrate and NADPH addition and measured after 20 mins by LC-MS/MS analysis; assay type: ADME, Microsome
[8] = Cmax in ICR mouse at 20 mg/kg, po administered via oral gavage by LC-MS/MS analysis; assay type: ADME, organism-based; conditions: in vivo
[9] = Plasma protein binding in mouse; assay type: ADME, cell-free; conditions: read-out: PPB (converted)
Cytochrome P450 2C19 = Cytochrome P450 2C19 (Homo sapiens, UniProt P33261); assay: Inhibition of CYP2C19 in human liver microsomes using S-Mephenytoin as substrate preincubated for 5 min followed by substrate and NADPH addition and measured after 20 mins by LC-MS/MS analysis; assay type: ADME, Microsome
[10] = Plasma protein binding in human; assay type: ADME, cell-free; conditions: read-out: PPB (converted)
[11] = AUClast in ICR mouse at 20 mg/kg, po administered via oral gavage by LC-MS/MS analysis; assay type: ADME, organism-based; conditions: in vivo
Cytochrome P450 2C9 = Cytochrome P450 2C9 (Homo sapiens, UniProt P11712); assay: Inhibition of CYP2C9 in human liver microsomes using tolbutamide as substrate preincubated for 5 min followed by substrate and NADPH addition and measured after 20 mins by LC-MS/MS analysis; assay type: ADME, Microsome
[12] = Stability in mouse plasma assessed as remaining activity at 5 uM incubated for 4 hrs by LC-MS/MS analysis; assay type: ADME, cell-free; conditions: read-out: Stability
[13] = Clearance in ICR mouse at 5 mg/kg, iv by LC-MS/MS analysis; assay type: ADME, organism-based; conditions: in vivo
[14] = Half life in ICR mouse at 5 mg/kg, iv by LC-MS/MS analysis; assay type: ADME, organism-based; conditions: in vivo
[15] = Metabolic stability at phase I in mouse liver microsomes assessed as remaining activity at 1 uM incubated for 30 mins in presence of NADPH by LC-MS/MS analysis; assay type: ADME, Microsome; conditions: read-out: Stability
[16] = AUClast in ICR mouse at 5 mg/kg, iv by LC-MS/MS analysis; assay type: ADME, organism-based; conditions: in vivo
[17] = AUC (0 to infinity) in ICR mouse at 5 mg/kg, iv by LC-MS/MS analysis; assay type: ADME, organism-based; conditions: in vivo
[18] = Volume of distribution at steady state in ICR mouse at 5 mg/kg, iv by LC-MS/MS analysis; assay type: ADME, organism-based; conditions: in vivo, read-out: Vdss
[19] = AUC (0 to infinity) in ICR mouse at 20 mg/kg, po administered via oral gavage by LC-MS/MS analysis; assay type: ADME, organism-based; conditions: in vivo
[20] = Tmax in ICR mouse at 20 mg/kg, po administered via oral gavage by LC-MS/MS analysis; assay type: ADME, organism-based; conditions: in vivo
[21] = Stability in human plasma assessed as remaining activity at 5 uM incubated for 4 hrs by LC-MS/MS analysis; assay type: ADME, cell-free; conditions: read-out: Stability
[22] = molecular target: Stimulator of interferon genes protein (Homo sapiens, UniProt Q86WV6); assay: Agonist activity at STING in wild type human THP1-Dual cells assessed as increase in IRF-mediated immune response incubated for 24 hrs by QUANTI-Luc assay; assay type: cell-based
Chain of Stimulator of interferon genes protein (Q86WV6 whole entry): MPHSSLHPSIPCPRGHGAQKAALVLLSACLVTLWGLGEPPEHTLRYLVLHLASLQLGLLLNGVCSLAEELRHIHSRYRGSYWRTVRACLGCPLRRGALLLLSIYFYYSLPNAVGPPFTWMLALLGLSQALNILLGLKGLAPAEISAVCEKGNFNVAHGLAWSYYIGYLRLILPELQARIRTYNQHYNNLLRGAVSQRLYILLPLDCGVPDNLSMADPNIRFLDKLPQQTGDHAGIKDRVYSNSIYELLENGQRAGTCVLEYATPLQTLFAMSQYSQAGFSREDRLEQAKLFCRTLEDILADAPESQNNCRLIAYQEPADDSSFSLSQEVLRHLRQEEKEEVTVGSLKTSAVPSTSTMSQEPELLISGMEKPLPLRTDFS

Chain of Cytochrome P450 2C9 (P11712 whole entry): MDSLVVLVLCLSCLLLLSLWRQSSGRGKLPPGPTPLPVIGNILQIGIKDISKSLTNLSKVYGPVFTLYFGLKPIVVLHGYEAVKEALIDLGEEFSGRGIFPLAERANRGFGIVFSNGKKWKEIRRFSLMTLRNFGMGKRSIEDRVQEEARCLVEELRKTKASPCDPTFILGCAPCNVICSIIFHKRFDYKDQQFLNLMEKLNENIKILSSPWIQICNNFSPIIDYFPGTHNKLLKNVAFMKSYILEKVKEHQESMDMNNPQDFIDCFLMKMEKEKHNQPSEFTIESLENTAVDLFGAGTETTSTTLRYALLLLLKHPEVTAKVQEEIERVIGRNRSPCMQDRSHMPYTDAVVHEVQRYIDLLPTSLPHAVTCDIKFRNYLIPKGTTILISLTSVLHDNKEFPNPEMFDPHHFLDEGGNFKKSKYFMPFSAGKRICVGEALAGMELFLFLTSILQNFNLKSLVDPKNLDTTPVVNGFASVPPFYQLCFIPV
Chain of Cytochrome P450 3A4 (P08684 whole entry): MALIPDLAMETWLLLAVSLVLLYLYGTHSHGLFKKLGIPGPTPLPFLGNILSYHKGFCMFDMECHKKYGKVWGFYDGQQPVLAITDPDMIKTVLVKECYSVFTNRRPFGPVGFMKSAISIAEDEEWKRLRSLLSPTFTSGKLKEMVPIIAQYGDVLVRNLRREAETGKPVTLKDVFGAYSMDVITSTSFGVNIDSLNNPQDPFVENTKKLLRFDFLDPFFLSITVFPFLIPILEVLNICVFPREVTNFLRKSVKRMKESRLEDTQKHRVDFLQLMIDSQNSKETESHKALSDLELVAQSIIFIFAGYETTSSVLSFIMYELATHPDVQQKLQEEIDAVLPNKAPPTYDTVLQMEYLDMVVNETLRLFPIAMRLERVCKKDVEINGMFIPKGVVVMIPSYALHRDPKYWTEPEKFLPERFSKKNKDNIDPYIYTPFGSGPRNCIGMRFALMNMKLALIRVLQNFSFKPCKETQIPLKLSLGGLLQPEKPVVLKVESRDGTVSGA
Chain of Voltage-gated inwardly rectifying potassium channel KCNH2 (Q12809 whole entry): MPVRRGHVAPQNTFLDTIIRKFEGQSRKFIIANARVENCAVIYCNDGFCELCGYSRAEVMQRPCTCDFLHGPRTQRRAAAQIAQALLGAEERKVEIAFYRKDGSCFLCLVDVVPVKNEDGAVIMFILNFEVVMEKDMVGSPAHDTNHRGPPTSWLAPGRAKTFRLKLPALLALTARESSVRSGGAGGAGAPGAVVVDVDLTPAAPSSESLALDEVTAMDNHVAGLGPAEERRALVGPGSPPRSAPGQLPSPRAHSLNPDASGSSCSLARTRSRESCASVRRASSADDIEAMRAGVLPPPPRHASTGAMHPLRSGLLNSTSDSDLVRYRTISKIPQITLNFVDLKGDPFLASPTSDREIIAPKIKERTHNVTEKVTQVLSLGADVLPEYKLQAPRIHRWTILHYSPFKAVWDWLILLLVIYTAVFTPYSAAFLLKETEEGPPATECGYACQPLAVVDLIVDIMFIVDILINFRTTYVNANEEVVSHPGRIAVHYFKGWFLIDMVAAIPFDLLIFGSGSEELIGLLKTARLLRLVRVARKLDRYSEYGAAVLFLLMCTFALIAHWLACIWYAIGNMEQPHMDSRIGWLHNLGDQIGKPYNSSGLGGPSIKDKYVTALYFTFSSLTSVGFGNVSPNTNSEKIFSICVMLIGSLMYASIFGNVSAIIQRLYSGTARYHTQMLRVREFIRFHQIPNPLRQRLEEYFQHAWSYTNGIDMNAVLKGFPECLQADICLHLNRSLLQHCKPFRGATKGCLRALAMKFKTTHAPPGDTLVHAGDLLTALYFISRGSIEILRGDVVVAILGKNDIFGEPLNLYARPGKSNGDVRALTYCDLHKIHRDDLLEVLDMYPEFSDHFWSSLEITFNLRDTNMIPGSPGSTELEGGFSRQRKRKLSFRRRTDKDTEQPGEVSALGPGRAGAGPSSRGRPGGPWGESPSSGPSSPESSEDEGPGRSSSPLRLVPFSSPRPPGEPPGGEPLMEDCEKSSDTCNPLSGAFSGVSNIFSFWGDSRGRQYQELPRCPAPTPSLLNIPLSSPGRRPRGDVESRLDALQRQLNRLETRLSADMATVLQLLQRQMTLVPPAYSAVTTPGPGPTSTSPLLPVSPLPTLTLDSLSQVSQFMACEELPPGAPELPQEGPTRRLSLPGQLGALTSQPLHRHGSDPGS
Chain of Cytochrome P450 2D6 (P10635 whole entry): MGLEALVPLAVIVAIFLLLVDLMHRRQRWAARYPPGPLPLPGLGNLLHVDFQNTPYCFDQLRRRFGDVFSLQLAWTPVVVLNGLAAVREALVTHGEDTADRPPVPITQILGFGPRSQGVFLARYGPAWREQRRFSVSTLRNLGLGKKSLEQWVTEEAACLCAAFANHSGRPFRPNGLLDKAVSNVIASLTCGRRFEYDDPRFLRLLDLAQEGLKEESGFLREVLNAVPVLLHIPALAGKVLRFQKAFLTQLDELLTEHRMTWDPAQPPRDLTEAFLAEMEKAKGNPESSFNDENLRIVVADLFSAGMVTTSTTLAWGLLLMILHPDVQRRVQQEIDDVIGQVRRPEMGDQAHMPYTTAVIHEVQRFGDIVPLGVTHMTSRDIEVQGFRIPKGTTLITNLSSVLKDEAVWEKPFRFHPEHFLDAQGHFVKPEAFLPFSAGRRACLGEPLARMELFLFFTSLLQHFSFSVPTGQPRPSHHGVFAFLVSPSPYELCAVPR
Chain of Cytochrome P450 2C19 (P33261 whole entry): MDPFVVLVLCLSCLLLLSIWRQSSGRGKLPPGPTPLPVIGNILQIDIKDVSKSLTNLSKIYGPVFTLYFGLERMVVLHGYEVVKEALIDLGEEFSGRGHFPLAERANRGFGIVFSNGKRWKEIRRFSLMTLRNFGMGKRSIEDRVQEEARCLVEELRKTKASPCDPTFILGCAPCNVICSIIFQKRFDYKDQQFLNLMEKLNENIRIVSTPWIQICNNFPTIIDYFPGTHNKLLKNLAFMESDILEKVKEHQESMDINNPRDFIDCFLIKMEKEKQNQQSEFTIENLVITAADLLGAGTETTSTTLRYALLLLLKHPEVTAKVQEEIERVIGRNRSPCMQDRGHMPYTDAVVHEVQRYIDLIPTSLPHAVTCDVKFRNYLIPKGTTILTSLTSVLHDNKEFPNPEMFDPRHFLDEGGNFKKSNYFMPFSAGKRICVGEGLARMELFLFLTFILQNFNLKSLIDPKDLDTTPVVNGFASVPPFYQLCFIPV

SMILES: Cc1ccc(C(=O)Nc2nc3cc(C(N)=O)ccc3n2CCCCNC(=O)OC(C)(C)C)c(C)n1
viability at 24 h [1]: 93.2%
viability at 24 h [2]: 112%

SMILES: Cc1ncccc1C(=O)Nc1nc2cc(C(N)=O)ccc2n1CCCN
viability at 24 h [1]: 100%
viability at 24 h [2]: 105%

SMILES: CCn1nc(C)cc1C(=O)NCCCCn1c(NC(=O)c2cccnc2C)nc2cc(C(N)=O)ccc21
viability at 24 h [1]: 105%
viability at 24 h [2]: 98.5%

SMILES: CC(C)(C)OC(=O)NCCCCn1c(NC(=O)c2ccc(C(F)(F)F)nc2)nc2cc(C(N)=O)ccc21
viability at 24 h [1]: 108%
viability at 24 h [2]: 106%

remaining at 0.5 h, 1 µM [3]: 27.9%
IC50 (Cytochrome P450 2D6): 16.5 µM
bioavailability [4]: 5.23%
IC50 (Cytochrome P450 1A2): > 100 µM
half-life [5]: 13.3 h
IC50 (Cytochrome P450 3A4): 10.5 µM
Cmax [8]: 110 ng/mL
fraction unbound [9]: 0.0624
IC50 (Cytochrome P450 2C19): 8.8 µM
fraction unbound [10]: 0.0211
AUC(0-t) [11]: 180 ng·h/mL
IC50 (Cytochrome P450 2C9): 28.3 µM
remaining at 4 h, 5 µM [12]: 99.5%
clearance [13]: 95.5 mL/min/kg
half-life [14]: 11.2 h
remaining at 0.5 h, 1 µM [15]: 18.1%
AUC(0-t) [16]: 880 ng·h/mL
AUC(0-inf) [17]: 900 ng·h/mL
Vd [18]: 11.7 L/kg
AUC(0-inf) [19]: 210 ng·h/mL
Tmax [20]: 0.42 h
remaining at 4 h, 5 µM [21]: > 99.9%
SMILES: Cc1ncccc1C(=O)Nc1nc2cc(C(N)=O)ccc2n1CCCCNC(=O)OC(C)(C)C
Activity (RAW264.7): Non-Toxic
Activity (THP1-Dual): Non-Toxic
viability at 24 h [1]: 106%
IC50 [6]: > 100 µM
Activity [7]: Non-Toxic
viability at 24 h [2]: 99.4%

EC50 [22]: 18 µM
SMILES: Cc1ncccc1C(=O)Nc1nc2cc(C(N)=O)ccc2n1CCCCn1c(NC(=O)c2cccnc2C)nc2cc(C(N)=O)ccc21
viability at 24 h [1]: 118%
viability at 24 h [2]: 91%

SMILES: Cc1cncc(C(=O)Nc2nc3cc(C(N)=O)ccc3n2CCCCNC(=O)OC(C)(C)C)c1
viability at 24 h [1]: 97.4%
viability at 24 h [2]: 90.7%

SMILES: CC(=O)NCCCCn1c(NC(=O)c2cccnc2C)nc2cc(C(N)=O)ccc21
viability at 24 h [1]: 97.4%
viability at 24 h [2]: 99.7%

EC50 [22]: 42.1 µM
SMILES: CC(C)(C)OC(=O)NCCCCn1c(NC(=O)c2cccnc2)nc2cc(C(N)=O)ccc21
viability at 24 h [1]: 93.3%
viability at 24 h [2]: 97.4%

SMILES: CC(C)(C)OC(=O)NCCCCn1c(NC(=O)c2ccccc2)nc2cc(C(N)=O)ccc21
viability at 24 h [1]: 101%
viability at 24 h [2]: 82.1%

SMILES: Cc1ncccc1C(=O)Nc1nc2cc(C(N)=O)ccc2n1CCCCN
viability at 24 h [1]: 98.5%
viability at 24 h [2]: 105%

SMILES: Cc1ncccc1C(=O)Nc1nc2cc(C(N)=O)ccc2n1CCCNC(=O)OC(C)(C)C
viability at 24 h [1]: 93.6%
viability at 24 h [2]: 102%

SMILES: COc1cc(C(N)=O)cc2nc(NC(=O)c3cccnc3C)n(C/C=C/CNC(=O)OC(C)(C)C)c12
viability at 24 h [1]: 97.5%
viability at 24 h [2]: 106%

SMILES: CC(C)(C)OC(=O)NCCCCn1c(NC(=O)c2cccnc2C(C)(C)C)nc2cc(C(N)=O)ccc21
viability at 24 h [1]: 106%
viability at 24 h [2]: 91.6%

SMILES: Cc1ccc(C(=O)Nc2nc3cc(C(N)=O)ccc3n2CCCCNC(=O)OC(C)(C)C)cn1
viability at 24 h [1]: 95.3%
viability at 24 h [2]: 89.3%

SMILES: Cc1ncccc1C(=O)Nc1nc2cc(C(N)=O)ccc2n1C
viability at 24 h [1]: 105%
viability at 24 h [2]: 82.8%

Reference: ChEMBL document CHEMBL5634145, “Discovery of novel amidobenzimidazole derivatives as orally available small molecule modulators of stimulator of interferon genes for cancer immunotherapy” (Eur J Med Chem, 2023)
